# Measured values reported in ChEMBL document CHEMBL4418495, “Entpd5 inhibitors” (2012).
# pIC50: −log10 of the molar value. The source made the active and inactive calls. Unless noted, the rule behind the calls is not given here.
# Target: T1, Nucleoside diphosphate phosphatase ENTPD5 (Homo sapiens, UniProt O75356)
# T1 sequence (O75356 whole entry): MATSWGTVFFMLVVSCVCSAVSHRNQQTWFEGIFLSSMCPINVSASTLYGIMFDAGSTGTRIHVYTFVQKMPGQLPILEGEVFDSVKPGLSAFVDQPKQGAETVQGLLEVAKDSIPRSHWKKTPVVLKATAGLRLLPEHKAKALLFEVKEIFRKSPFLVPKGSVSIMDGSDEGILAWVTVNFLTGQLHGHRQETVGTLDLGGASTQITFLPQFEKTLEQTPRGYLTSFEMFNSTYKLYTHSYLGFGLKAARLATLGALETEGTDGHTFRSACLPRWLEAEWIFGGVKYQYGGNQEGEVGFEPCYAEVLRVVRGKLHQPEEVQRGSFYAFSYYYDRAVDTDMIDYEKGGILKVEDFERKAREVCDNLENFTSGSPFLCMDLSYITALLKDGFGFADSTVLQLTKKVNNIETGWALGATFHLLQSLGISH
# Experiment: Inhibition of human recombinant ENTPD5 expressed in insect cells assessed as reduction in UDP hydrolysis incubated for 1 hr in presence of UMP, GTP and ATP by Escherichia coli UMP kinase pyrH catalyzed UMP phosphorylation coupled luciferase assay
row,SMILES,pIC50
1,C[C@H]1CC[C@@H]2C(CCCC2(C)C)[C@]1(C)c1cc(O)ccc1O (stereo partly drawn),4.52
2,C[C@H]1CC[C@H]2C(C)(C)CCC[C@]23Oc2ccc(O)cc2C[C@]13C [AUREOL],4.70 to 4.82
3,CC1(C)CCC[C@]2(C)[C@H]3Cc4cc(O)ccc4O[C@]3(C)CC[C@@H]12,5.00
4,C[C@H]1CC[C@]2(C)C(CCCC2(C)C)[C@]1(C)c1cc(O)ccc1O (stereo partly drawn),4.52

# Target: T2, Ectonucleoside triphosphate diphosphohydrolase 5 (Mus musculus) (UniProt Q9WUZ9)
# T2 sequence (whole entry): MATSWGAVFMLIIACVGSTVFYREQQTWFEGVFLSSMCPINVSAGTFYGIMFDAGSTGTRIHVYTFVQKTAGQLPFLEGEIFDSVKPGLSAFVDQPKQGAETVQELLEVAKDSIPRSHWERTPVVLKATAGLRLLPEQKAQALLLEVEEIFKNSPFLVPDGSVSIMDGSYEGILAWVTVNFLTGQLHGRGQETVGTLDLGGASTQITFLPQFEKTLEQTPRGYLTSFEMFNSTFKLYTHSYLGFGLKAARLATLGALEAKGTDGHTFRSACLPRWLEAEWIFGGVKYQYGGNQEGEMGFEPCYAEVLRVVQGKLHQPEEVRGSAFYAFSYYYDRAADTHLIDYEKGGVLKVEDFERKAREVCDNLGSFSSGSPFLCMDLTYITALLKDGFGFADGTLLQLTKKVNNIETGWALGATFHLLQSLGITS
# Experiment: Inhibition of ENTPD5 in PTEN knockout mouse MEF cells assessed as induction of ER stress by measuring increase in GRP78/BiP expression at 30 uM incubated for 24 hrs by Western blotting analysis
# Type: cell-based
row,SMILES,inhibition
1,O=C1/C(=C/c2ccc(O)c([N+](=O)[O-])c2)SC(=S)N1c1cccc(Cl)c1,Active
2,CCOc1ccc(N2C(=O)/C(=C/c3cccn3-c3ccc(Br)cc3)C(=O)NC2=S)c(F)c1,Active
3,CCOC(=O)c1ccc(-c2ccc(/C=C3/C(=O)NC(=O)N(Cc4ccco4)C3=O)o2)cc1,Active

# The next lines start with the values.
row,inhibition,SMILES
1,Active,Cc1ccc2nc(Nc3nc(O)c(CCC(C)C)c(=O)[nH]3)nc(C)c2c1
2,Active,O=C(Oc1ccc2ccccc2c1)c1ccc2c(c1)C1C=CCC1C(C(=O)O)N2 (stereo not drawn)
3,Active,N#CC1=C(c2ccco2)CC(c2ccccc2)NC1=S (stereo not drawn)
4,Active,S=C(Nc1ccc2nc(-c3ccco3)c(-c3ccco3)nc2c1)N1CCCC1
5,Active,N=C1S/C(=C\c2ccc(N3CCOCC3)cc2)C(=O)N1c1ccc(Br)cc1

# Target: T2, Ectonucleoside triphosphate diphosphohydrolase 5 (Mus musculus)
# Experiment: Inhibition of ENTPD5 in PTEN knockout mouse MEF cells assessed as induction of ER stress by measuring increase in GRP78/BiP expression incubated for 24 hrs by Western blotting analysis
# Type: cell-based
row,inhibition,SMILES
1,Dose-dependent effect,CCOc1ccc(N2C(=O)/C(=C/c3cccn3-c3ccc(Br)cc3)C(=O)NC2=S)c(F)c1

# Target: T2, Ectonucleoside triphosphate diphosphohydrolase 5 (Mus musculus)
# Experiment: Inhibition of ENTPD5 in PTEN knockout mouse MEF cells assessed as induction of ER stress by measuring increase in EGF receptor degradation incubated for 24 hrs by Western blotting analysis
# Type: cell-based
row,inhibition,SMILES
1,Dose-dependent effect,CCOc1ccc(N2C(=O)/C(=C/c3cccn3-c3ccc(Br)cc3)C(=O)NC2=S)c(F)c1

# Tested on: MEF
# Experiment: Toxicity in PTEN knockout mouse MEF cells assessed as reduction in cell viability at 30 uM incubated for 24 hrs
# Type: cell-based
row,SMILES,Activity
1,C[C@H]1CC[C@H]2C(C)(C)CCC[C@]23Oc2ccc(O)cc2C[C@]13C [AUREOL],Toxic

# Tested on: LNCaP
# Experiment: Antitumor activity against human LNCAP cells xenografted in mouse assessed as induction of tumor shrinkage at 1 to 100 mg/kg, ip dosed every other day and measured after 6 weeks by microscopy
# Type: functional, organism-based
row,SMILES,Activity
1,O=C1/C(=C/c2ccc(O)c([N+](=O)[O-])c2)SC(=S)N1c1cccc(Cl)c1,Active
2,Cc1ccc2nc(Nc3nc(O)c(CCC(C)C)c(=O)[nH]3)nc(C)c2c1,Active
3,O=C(Oc1ccc2ccccc2c1)c1ccc2c(c1)C1C=CCC1C(C(=O)O)N2 (stereo not drawn),Active
4,N#CC1=C(c2ccco2)CC(c2ccccc2)NC1=S (stereo not drawn),Active
5,S=C(Nc1ccc2nc(-c3ccco3)c(-c3ccco3)nc2c1)N1CCCC1,Active
6,CCOc1ccc(N2C(=O)/C(=C/c3cccn3-c3ccc(Br)cc3)C(=O)NC2=S)c(F)c1,Active
7,CCOC(=O)c1ccc(-c2ccc(/C=C3/C(=O)NC(=O)N(Cc4ccco4)C3=O)o2)cc1,Active
8,N=C1S/C(=C\c2ccc(N3CCOCC3)cc2)C(=O)N1c1ccc(Br)cc1,Active

# Tested on: LNCaP
# Experiment: Antitumor activity against human LNCAP cells xenografted in mouse assessed as reduction in cells left in matrigels at 1 to 100 mg/kg, ip dosed every other day and measured after 6 weeks by hematoxylin and eosin staining based microscopy
# Type: functional, organism-based
row,SMILES,Activity
1,O=C1/C(=C/c2ccc(O)c([N+](=O)[O-])c2)SC(=S)N1c1cccc(Cl)c1,Active
2,Cc1ccc2nc(Nc3nc(O)c(CCC(C)C)c(=O)[nH]3)nc(C)c2c1,Active
3,O=C(Oc1ccc2ccccc2c1)c1ccc2c(c1)C1C=CCC1C(C(=O)O)N2 (stereo not drawn),Active
4,N#CC1=C(c2ccco2)CC(c2ccccc2)NC1=S (stereo not drawn),Active
5,S=C(Nc1ccc2nc(-c3ccco3)c(-c3ccco3)nc2c1)N1CCCC1,Active
6,CCOc1ccc(N2C(=O)/C(=C/c3cccn3-c3ccc(Br)cc3)C(=O)NC2=S)c(F)c1,Active
7,CCOC(=O)c1ccc(-c2ccc(/C=C3/C(=O)NC(=O)N(Cc4ccco4)C3=O)o2)cc1,Active
8,N=C1S/C(=C\c2ccc(N3CCOCC3)cc2)C(=O)N1c1ccc(Br)cc1,Active

# Target: T3, Nucleoside diphosphate phosphatase ENTPD5 (Homo sapiens) (UniProt O75356)
# T3 sequence (whole entry): T1 sequence (O75356 whole entry)
# Experiment: Inhibition of human recombinant ENTPD5 expressed in insect cells assessed as reduction in UDP hydrolysis at 1 uM incubated for 1 hr in presence of UMP, GTP and ATP by Escherichia coli UMP kinase pyrH catalyzed UMP phosphorylation coupled luciferase assay
row,SMILES,inhibition
1,O=C1/C(=C/c2ccc(O)c([N+](=O)[O-])c2)SC(=S)N1c1cccc(Cl)c1,Active
2,CCOc1ccc(N2C(=O)/C(=C/c3cccn3-c3ccc(Br)cc3)C(=O)NC2=S)c(F)c1,Active
3,CCOC(=O)c1ccc(-c2ccc(/C=C3/C(=O)NC(=O)N(Cc4ccco4)C3=O)o2)cc1,Active

# The remaining lines, values ahead:
row,inhibition,SMILES
1,Active,Cc1ccc2nc(Nc3nc(O)c(CCC(C)C)c(=O)[nH]3)nc(C)c2c1
2,Active,O=C(Oc1ccc2ccccc2c1)c1ccc2c(c1)C1C=CCC1C(C(=O)O)N2 (stereo not drawn)
3,Active,N#CC1=C(c2ccco2)CC(c2ccccc2)NC1=S (stereo not drawn)
4,Active,S=C(Nc1ccc2nc(-c3ccco3)c(-c3ccco3)nc2c1)N1CCCC1
5,Active,N=C1S/C(=C\c2ccc(N3CCOCC3)cc2)C(=O)N1c1ccc(Br)cc1

# Target: T3, Nucleoside diphosphate phosphatase ENTPD5 (Homo sapiens)
# Experiment: Inhibition of human recombinant ENTPD5 expressed in insect cells assessed as reduction in UDP hydrolysis up to 10 uM incubated for 1 hr in presence of UMP, GTP and ATP by Escherichia coli UMP kinase pyrH catalyzed UMP phosphorylation coupled luciferase assay
row,SMILES,inhibition
1,O=C1/C(=C/c2ccc(O)c([N+](=O)[O-])c2)SC(=S)N1c1cccc(Cl)c1,Dose-dependent effect
2,CCOc1ccc(N2C(=O)/C(=C/c3cccn3-c3ccc(Br)cc3)C(=O)NC2=S)c(F)c1,Dose-dependent effect
3,CCOC(=O)c1ccc(-c2ccc(/C=C3/C(=O)NC(=O)N(Cc4ccco4)C3=O)o2)cc1,Dose-dependent effect

# Now from value to compound:
row,inhibition,SMILES
1,Dose-dependent effect,Cc1ccc2nc(Nc3nc(O)c(CCC(C)C)c(=O)[nH]3)nc(C)c2c1
2,Dose-dependent effect,O=C(Oc1ccc2ccccc2c1)c1ccc2c(c1)C1C=CCC1C(C(=O)O)N2 (stereo not drawn)
3,Dose-dependent effect,N#CC1=C(c2ccco2)CC(c2ccccc2)NC1=S (stereo not drawn)
4,Dose-dependent effect,S=C(Nc1ccc2nc(-c3ccco3)c(-c3ccco3)nc2c1)N1CCCC1
5,Dose-dependent effect,N=C1S/C(=C\c2ccc(N3CCOCC3)cc2)C(=O)N1c1ccc(Br)cc1

# Target: T4, Uridylate kinase (Escherichia coli (strain K12)) (UniProt P0A7E9)
# T4 sequence (whole entry): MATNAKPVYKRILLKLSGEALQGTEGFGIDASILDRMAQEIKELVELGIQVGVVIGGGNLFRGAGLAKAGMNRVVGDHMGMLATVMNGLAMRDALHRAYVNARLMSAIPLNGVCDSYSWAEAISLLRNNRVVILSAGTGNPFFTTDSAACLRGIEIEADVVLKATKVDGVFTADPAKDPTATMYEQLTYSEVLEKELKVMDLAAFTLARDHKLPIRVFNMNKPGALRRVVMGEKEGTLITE
# Experiment: Inhibition of recombinant Escherichia coli UMP kinase pyrH catalyzed UMP phosphorylation in presence of GTP and ATP incubated for 1 hr by luminescence based assay
row,SMILES,inhibition
1,O=C1/C(=C/c2ccc(O)c([N+](=O)[O-])c2)SC(=S)N1c1cccc(Cl)c1,inactive
2,CCOc1ccc(N2C(=O)/C(=C/c3cccn3-c3ccc(Br)cc3)C(=O)NC2=S)c(F)c1,inactive
3,CCOC(=O)c1ccc(-c2ccc(/C=C3/C(=O)NC(=O)N(Cc4ccco4)C3=O)o2)cc1,inactive

# Second part, the compound after the results:
row,inhibition,SMILES
1,inactive,Cc1ccc2nc(Nc3nc(O)c(CCC(C)C)c(=O)[nH]3)nc(C)c2c1
2,inactive,O=C(Oc1ccc2ccccc2c1)c1ccc2c(c1)C1C=CCC1C(C(=O)O)N2 (stereo not drawn)
3,inactive,N#CC1=C(c2ccco2)CC(c2ccccc2)NC1=S (stereo not drawn)
4,inactive,S=C(Nc1ccc2nc(-c3ccco3)c(-c3ccco3)nc2c1)N1CCCC1
5,inactive,N=C1S/C(=C\c2ccc(N3CCOCC3)cc2)C(=O)N1c1ccc(Br)cc1

# Target: T3, Nucleoside diphosphate phosphatase ENTPD5 (Homo sapiens)
# Experiment: Inhibition of human recombinant ENTPD5 expressed in insect cells assessed as reduction in reduction in UDP hydrolysis by measuring inorganic phosphate release incubated for 1 hr by malachite green based assay
row,SMILES,inhibition
1,O=C1/C(=C/c2ccc(O)c([N+](=O)[O-])c2)SC(=S)N1c1cccc(Cl)c1,Active
2,CCOc1ccc(N2C(=O)/C(=C/c3cccn3-c3ccc(Br)cc3)C(=O)NC2=S)c(F)c1,Active
3,CCOC(=O)c1ccc(-c2ccc(/C=C3/C(=O)NC(=O)N(Cc4ccco4)C3=O)o2)cc1,Active

# Other lines, results leading:
row,inhibition,SMILES
1,Active,Cc1ccc2nc(Nc3nc(O)c(CCC(C)C)c(=O)[nH]3)nc(C)c2c1
2,Active,O=C(Oc1ccc2ccccc2c1)c1ccc2c(c1)C1C=CCC1C(C(=O)O)N2 (stereo not drawn)
3,Active,N#CC1=C(c2ccco2)CC(c2ccccc2)NC1=S (stereo not drawn)
4,Active,S=C(Nc1ccc2nc(-c3ccco3)c(-c3ccco3)nc2c1)N1CCCC1
5,Active,N=C1S/C(=C\c2ccc(N3CCOCC3)cc2)C(=O)N1c1ccc(Br)cc1
